{
  "source": "PubChem BioAssay AID212",
  "about": "(DTP/NCI, 2004)",
  "system": "BDF1 mice, colon carcinoma 38 sc, T/C %",
  "assay": "NCI In Vivo Anticancer Drug Screen. Data for tumor model Colon Carcinoma 38 (subcutaneous) in B6D2F1 (BDF1) mice",
  "outline": "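Ratio of survival or tumor size, compound-treated animals relative to vehicle controls, in tumor-bearing mice.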",
  "key": {"[1]": {"conditions": "endpoint: median tumor weight (est.), dose: 200.0 mg/kg/injection, schedule: Q07DX002 (ip), vehicle: saline, higher = larger tumour"}},
  "note": "Values joined by “and” are separate entries in the source; they are usually repeats but may differ in a detail not shown here. Equal values may be shown once. Results filed as inconclusive are left out.",
  "data": [
    {"smiles": "CN(C)CCN1C(=O)c2cccc3cc([N+](=O)[O-])cc(c23)C1=O", "values": [
      {"measurement": "T/C", "setting": "endpoint: median tumor weight (est.), dose: 1.56 mg/kg/injection, schedule: Q07DX002 (ip), vehicle: saline with Tween-80, higher = larger tumour", "value": "93 % of control"},
      {"measurement": "T/C", "setting": "endpoint: median tumor weight (est.), dose: 3.13 mg/kg/injection, schedule: Q07DX002 (ip), vehicle: saline with Tween-80, higher = larger tumour", "value": "90 % of control"},
      {"measurement": "T/C", "setting": "endpoint: median tumor weight (est.), dose: 6.25 mg/kg/injection, schedule: Q07DX002 (ip), vehicle: saline with Tween-80, higher = larger tumour", "value": "70 % of control"},
      {"measurement": "T/C", "setting": "endpoint: median tumor weight (est.), dose: 12.5 mg/kg/injection, schedule: Q07DX002 (ip), vehicle: saline with Tween-80, higher = larger tumour", "value": "56 % of control"}
    ]},
    {"smiles": "COC(=O)Nc1cccc(-c2nc3ccc(NC(=O)OC)cc3c(=O)n2-c2ccccc2)c1", "values": [
      {"measurement": "T/C", "setting": "endpoint: median tumor weight (est.), dose: 32.0 mg/kg/injection, schedule: Q07DX003 (ip), vehicle: Klucel (hydroxypropylcellulose) (HPC), higher = larger tumour", "value": "78 % of control"},
      {"measurement": "T/C", "setting": "endpoint: median tumor weight (est.), dose: 64.0 mg/kg/injection, schedule: Q07DX003 (ip), vehicle: Klucel (hydroxypropylcellulose) (HPC), higher = larger tumour", "value": "70 % of control"},
      {"measurement": "T/C", "setting": "endpoint: median tumor weight (est.), dose: 128.0 mg/kg/injection, schedule: Q07DX003 (ip), vehicle: Klucel (hydroxypropylcellulose) (HPC), higher = larger tumour", "value": "87 % of control"},
      {"measurement": "T/C", "setting": "endpoint: median tumor weight (est.), dose: 256.0 mg/kg/injection, schedule: Q07DX003 (ip), vehicle: Klucel (hydroxypropylcellulose) (HPC), higher = larger tumour", "value": "30 % of control"}
    ]},
    {"smiles": "CCc1ccc(C2=C(O)C(=O)C(c3ccccc3)=C(O)C2=O)cc1", "values": [
      {"measurement": "T/C", "setting": "endpoint: median tumor weight (est.), dose: 12.5 mg/kg/injection, schedule: Q07DX002 (ip), vehicle: Klucel (hydroxypropylcellulose) (HPC), higher = larger tumour", "value": "101 % of control"},
      {"measurement": "T/C", "setting": "endpoint: median tumor weight (est.), dose: 25.0 mg/kg/injection, schedule: Q07DX002 (ip), vehicle: Klucel (hydroxypropylcellulose) (HPC), higher = larger tumour", "value": "81 % of control"},
      {"measurement": "T/C", "setting": "endpoint: median tumor weight (est.), dose: 50.0 mg/kg/injection, schedule: Q07DX002 (ip), vehicle: Klucel (hydroxypropylcellulose) (HPC), higher = larger tumour", "value": "50 % of control"}
    ]},
    {"smiles": "Nc1nc(/C=C(/O)c2ccccc2)c2ncn(C3OC(CO)C(O)C3O)c2n1", "note": "(stereo unspecified)", "values": [
      {"measurement": "T/C", "setting": "endpoint: median tumor weight (est.), dose: 12.5 mg/kg/injection, schedule: Q07DX002 (ip), vehicle: distilled water + Tween-80, higher = larger tumour", "value": "100 % of control"},
      {"measurement": "T/C", "setting": "endpoint: median tumor weight (est.), dose: 12.5 mg/kg/injection, schedule: Q07DX002 (ip), vehicle: saline, higher = larger tumour", "value": "120 % of control"},
      {"measurement": "T/C", "setting": "endpoint: median tumor weight (est.), dose: 25.0 mg/kg/injection, schedule: Q07DX002 (ip), vehicle: distilled water + Tween-80, higher = larger tumour", "value": "85 % of control"},
      {"measurement": "T/C", "setting": "endpoint: median tumor weight (est.), dose: 25.0 mg/kg/injection, schedule: Q07DX002 (ip), vehicle: saline, higher = larger tumour", "value": "87 % of control"},
      {"measurement": "T/C", "setting": "endpoint: median tumor weight (est.), dose: 50.0 mg/kg/injection, schedule: Q07DX002 (ip), vehicle: saline, higher = larger tumour", "value": "89 % of control"},
      {"measurement": "T/C", "setting": "endpoint: median tumor weight (est.), dose: 100.0 mg/kg/injection, schedule: Q07DX002 (ip), vehicle: distilled water + Tween-80, higher = larger tumour", "value": "110 % of control"},
      {"measurement": "T/C", "setting": "endpoint: median tumor weight (est.), dose: 100.0 mg/kg/injection, schedule: Q07DX002 (ip), vehicle: saline, higher = larger tumour", "value": "99 % of control"},
      {"measurement": "T/C", "setting": "[1]", "value": "120 % of control"}
    ]},
    {"smiles": "COc1cccc2c1C(=O)c1c(O)c3c(c(O)c1C2=O)C[C@@](O)(C(C)=O)C[C@@H]3OC1CC(N(Cc2ccccc2)Cc2ccccc2)C(O)C(C)O1", "note": "(stereo partly specified)", "values": [
      {"measurement": "T/C", "setting": "endpoint: median survival time, dose: 43.0 mg/kg/injection, schedule: Q07DX003 (sc), vehicle: saline with Tween-80, higher = longer survival", "value": "152 % of control"},
      {"measurement": "T/C", "setting": "endpoint: median survival time, dose: 69.0 mg/kg/injection, schedule: Q07DX003 (sc), vehicle: saline with Tween-80, higher = longer survival", "value": "170 % of control"},
      {"measurement": "T/C", "setting": "endpoint: median survival time, dose: 112.0 mg/kg/injection, schedule: Q07DX003 (sc), vehicle: saline with Tween-80, higher = longer survival", "value": "220 % of control"},
      {"measurement": "T/C", "setting": "endpoint: median survival time, dose: 180.0 mg/kg/injection, schedule: Q07DX003 (sc), vehicle: saline with Tween-80, higher = longer survival", "value": "254 % of control"},
      {"measurement": "T/C", "setting": "endpoint: median tumor weight (est.), dose: 6.75 mg/kg/injection, schedule: Q07DX002 (ip), vehicle: distilled water + Tween-80, higher = larger tumour", "value": "108 % of control"},
      {"measurement": "T/C", "setting": "endpoint: median tumor weight (est.), dose: 13.5 mg/kg/injection, schedule: Q07DX002 (ip), vehicle: distilled water + Tween-80, higher = larger tumour", "value": "57 % of control"},
      {"measurement": "T/C", "setting": "endpoint: median tumor weight (est.), dose: 27.0 mg/kg/injection, schedule: Q07DX002 (ip), vehicle: distilled water + Tween-80, higher = larger tumour", "value": "13 % of control"},
      {"measurement": "T/C", "setting": "endpoint: median tumor weight (est.), dose: 27.0 mg/kg/injection, schedule: Q07DX002 (ip), vehicle: saline with Tween-80, higher = larger tumour", "value": "39 % of control and 50 % of control"},
      {"measurement": "T/C", "setting": "endpoint: median tumor weight (est.), dose: 54.0 mg/kg/injection, schedule: Q07DX002 (ip), vehicle: saline with Tween-80, higher = larger tumour", "value": "8 % of control"},
      {"measurement": "T/C", "setting": "endpoint: median tumor weight (est.), dose: 108.0 mg/kg/injection, schedule: Q07DX002 (ip), vehicle: saline with Tween-80, higher = larger tumour", "value": "3 % of control"}
    ]},
    {"smiles": "COC1=C(N)C(=O)c2nc(-c3nc(C(=O)O)c(C)c(-c4ccc(OC)c(OC)c4O)c3N)ccc2C1=O", "values": [
      {"measurement": "T/C", "setting": "endpoint: median tumor weight (est.), dose: 0.05 mg/kg/injection, schedule: Q07DX003 (ip), vehicle: Klucel (hydroxypropylcellulose) (HPC), higher = larger tumour", "value": "110 % of control"},
      {"measurement": "T/C", "setting": "endpoint: median tumor weight (est.), dose: 0.1 mg/kg/injection, schedule: Q07DX003 (ip), vehicle: Klucel (hydroxypropylcellulose) (HPC), higher = larger tumour", "value": "93 % of control"},
      {"measurement": "T/C", "setting": "endpoint: median tumor weight (est.), dose: 0.2 mg/kg/injection, schedule: Q07DX003 (ip), vehicle: Klucel (hydroxypropylcellulose) (HPC), higher = larger tumour", "value": "111 % of control"},
      {"measurement": "T/C", "setting": "endpoint: median tumor weight (est.), dose: 0.4 mg/kg/injection, schedule: Q07DX003 (ip), vehicle: Klucel (hydroxypropylcellulose) (HPC), higher = larger tumour", "value": "83 % of control"}
    ]},
    {"smiles": "Cc1cn(C2CC(F)C(CO)O2)c(=O)[nH]c1=O", "note": "(stereo unspecified)", "values": [
      {"measurement": "T/C", "setting": "endpoint: median tumor weight (est.), dose: 50.0 mg/kg/injection, schedule: Q01DX001 (ip), vehicle: Klucel (hydroxypropylcellulose) (HPC), higher = larger tumour", "value": "204 % of control"},
      {"measurement": "T/C", "setting": "endpoint: median tumor weight (est.), dose: 100.0 mg/kg/injection, schedule: Q01DX001 (ip), vehicle: Klucel (hydroxypropylcellulose) (HPC), higher = larger tumour", "value": "193 % of control"},
      {"measurement": "T/C", "setting": "endpoint: median tumor weight (est.), dose: 200.0 mg/kg/injection, schedule: Q01DX001 (ip), vehicle: Klucel (hydroxypropylcellulose) (HPC), higher = larger tumour", "value": "182 % of control"},
      {"measurement": "T/C", "setting": "[1]", "value": "119 % of control"},
      {"measurement": "T/C", "setting": "endpoint: median tumor weight (est.), dose: 400.0 mg/kg/injection, schedule: Q01DX001 (ip), vehicle: Klucel (hydroxypropylcellulose) (HPC), higher = larger tumour", "value": "165 % of control"},
      {"measurement": "T/C", "setting": "endpoint: median tumor weight (est.), dose: 400.0 mg/kg/injection, schedule: Q07DX002 (ip), vehicle: saline, higher = larger tumour", "value": "103 % of control"},
      {"measurement": "T/C", "setting": "endpoint: median tumor weight (est.), dose: 800.0 mg/kg/injection, schedule: Q07DX002 (ip), vehicle: saline, higher = larger tumour", "value": "117 % of control"},
      {"measurement": "T/C", "setting": "endpoint: median tumor weight (est.), dose: 1600.0 mg/kg/injection, schedule: Q07DX002 (ip), vehicle: saline, higher = larger tumour", "value": "100 % of control"}
    ]}
  ]
}
